Test results from the CheMixHub ionic liquid set.

Assay: xn = mol fraction of the nth substance listed

CC[N+](C)(CC)CCOC.F[B-](F)(F)F + CCCC[n+]1ccn(C)c1C.F[B-](F)(F)F
100 kPa
Details	electrical conductivity [S/m]
313.15 K, x1 = 0.4	0.289
313.15 K, x1 = 0.7	0.302
318.15 K, x1 = 0.2	0.318
318.15 K, x1 = 0.4	0.361
318.15 K, x1 = 0.5	0.369
318.15 K, x1 = 0.8	0.41
318.15 K, x1 = 1	0.437
328.15 K, x1 = 0.1	0.492
328.15 K, x1 = 0.2	0.502
328.15 K, x1 = 0.5	0.555
328.15 K, x1 = 0.9	0.682
333.15 K, x1 = 0.5	0.685
338.15 K, x1 = 0.4	0.772
343.15 K, x1 = 0.4	0.913
348.15 K, x1 = 0.6	1.14
353.15 K, x1 = 0.2	1.18
353.15 K, x1 = 0.3	1.21
353.15 K, x1 = 0.4	1.24
353.15 K, x1 = 0.5	1.27
353.15 K, x1 = 0.7	1.38
353.15 K, x1 = 1	1.62
358.15 K, x1 = 0.3	1.39
358.15 K, x1 = 0.4	1.42
358.15 K, x1 = 0.8	1.61
363.15 K, x1 = 0.5	1.67
363.15 K, x1 = 1	2.1

CCC[N+]1(C)CCCCC1.O=S(=O)([N-]S(=O)(=O)C(F)(F)F)C(F)(F)F + CCC[N+](C)(C)C.O=S(=O)([N-]S(=O)(=O)C(F)(F)F)C(F)(F)F
101.3 kPa, x2 = 0
Details	viscosity [mPa·s]
293.15 K	199
298.15 K	147
303.15 K	112
313.15 K	69
338.15 K	26.6
343.15 K	22.9

CC(=O)[O-].Cn1cc[n+](C)c1 + CCO
293.15 K, 101.3 kPa
Details	electrical conductivity [S/m]
x2 = 0	0.275
x2 = 0.0694	0.335
x2 = 0.1341	0.401
x2 = 0.2695	0.559
x2 = 0.4097	0.873
x2 = 0.5071	1.197
x2 = 0.6815	1.821
x2 = 0.7393	1.903
x2 = 0.7685	1.86
x2 = 0.7896	1.683
x2 = 0.8843	0.86
x2 = 0.9267	0.491
x2 = 0.9487	0.302
x2 = 0.9595	0.213
x2 = 0.9709	0.131

CC[n+]1ccn(C)c1.[I-] + CCO
Details	electrical conductivity [S/m]
298.15 K, 100 kPa, x1 = 0.4385	2.22

CC[N+](C)(CC)CCOC.F[B-](F)(F)F + CC[N+](C)(CC)CCOC.O=S(=O)([N-]S(=O)(=O)C(F)(F)F)C(F)(F)F
100 kPa
Details	electrical conductivity [S/m]
293.15 K, x2 = 0.1	0.112
298.15 K, x2 = 0.3	0.19
298.15 K, x2 = 0.7	0.227
298.15 K, x2 = 0.9	0.267
303.15 K, x2 = 0.9	0.341
308.15 K, x2 = 0.3	0.325
308.15 K, x2 = 0.5	0.356
313.15 K, x2 = 0.2	0.388
313.15 K, x2 = 0.3	0.409
313.15 K, x2 = 0.8	0.495
318.15 K, x2 = 0.4	0.525
318.15 K, x2 = 0.7	0.573
323.15 K, x2 = 0.2	0.595
323.15 K, x2 = 0.3	0.612
328.15 K, x2 = 0.2	0.722
328.15 K, x2 = 0.6	0.806
333.15 K, x2 = 0.1	0.892
333.15 K, x2 = 0.5	0.911
333.15 K, x2 = 0.7	0.948
338.15 K, x2 = 0.7	1.1
343.15 K, x2 = 0.2	1.19
343.15 K, x2 = 0.3	1.19
343.15 K, x2 = 0.8	1.25

CC1(C)CC(O)CC(C)(C)N1[O] + CC[N+](CC)(CC)CC.[Cl-] + O
323.15 K, 100 kPa, frequency 0.001 MHz
Details	electrical conductivity [S/m]
x1 = 0.091, x2 = 0.182	1.2
x1 = 0.167, x2 = 0.167	0.61
x1 = 0.2, x2 = 0	0.019
x1 = 0.286, x2 = 0.143	0.16

CC[NH+](CC)CC.O=[N+]([O-])[O-] + CC[NH3+].O=[N+]([O-])[O-]
101 kPa, frequency 0.00293 MHz
Details	electrical conductivity [S/m]
293.15 K, x1 = 0.149	1.28
293.15 K, x1 = 0.1997	1.15
293.15 K, x1 = 0.25	0.97
293.15 K, x1 = 0.2993	0.86
293.15 K, x1 = 0.3475	0.79
298.15 K, x1 = 0.149	1.52
303.15 K, x1 = 0.3475	1.12
313.15 K, x1 = 0.3995	1.38
313.15 K, x1 = 0.4472	1.23
323.15 K, x1 = 0.0999	3.31
323.15 K, x1 = 0.3995	1.8

101 kPa
Details	viscosity [mPa·s]
293.15 K, x1 = 0.149	55.3
293.15 K, x1 = 0.1997	62.8
293.15 K, x1 = 0.25	69.1
293.15 K, x1 = 0.2993	76.9
293.15 K, x1 = 0.3475	83.5
298.15 K, x1 = 0.149	45.3
303.15 K, x1 = 0.3475	54.8
313.15 K, x1 = 0.3995	40.8
313.15 K, x1 = 0.4472	44.4
323.15 K, x1 = 0.0999	19.7
323.15 K, x1 = 0.3995	29.1
323.15 K, x1 = 0.5003	33.1
328.15 K, x1 = 0.149	18.1
328.15 K, x1 = 0.3995	25.1
328.15 K, x1 = 0.5003	28.3
328.15 K, x1 = 0.5485	27.4
333.15 K, x1 = 0.1997	17.5
333.15 K, x1 = 0.5003	24.7
333.15 K, x1 = 0.5485	23.9
338.15 K, x1 = 0.2993	17.3
338.15 K, x1 = 0.4472	20.3
343.15 K, x1 = 0.0499	11.6
343.15 K, x1 = 0.2993	15.3
348.15 K, x1 = 0.0999	11.1
348.15 K, x1 = 0.2993	13.7
348.15 K, x1 = 0.4472	15.7
353.15 K, x1 = 0.2993	12.4

CNC=O + CC[n+]1ccn(C)c1.F[B-](F)(F)F
298 K, 101 kPa
Details	electrical conductivity [S/m]
x1 = 0.21	2.08
x1 = 0.47	2.73
x1 = 0.66	2.95

CC[n+]1ccn(C)c1.C[C@H](N)C(=O)[O-] + CC[n+]1ccn(C)c1.N#C[C-](C#N)C#N
101 kPa, x2 = 0
Details	viscosity [mPa·s]
308.15 K	137.5
313.15 K	103.5

CCCCn1cc[n+](CCOCC[n+]2ccn(CCCC)c2)c1.N#C[N-]C#N.N#C[N-]C#N + CC[n+]1ccn(C)c1.N#C[N-]C#N + O=S(=O)([N-]S(=O)(=O)C(F)(F)F)C(F)(F)F.[Li+]
100 kPa, x1 = 0.2561, x2 = 0.6541
Details	electrical conductivity [S/m]
298 K	0.527
303 K	0.737
313 K	0.921
323 K	1.35
333 K	1.74
343 K	2.13

CC[S+](CC)CCOCCOCC[S+](CC)CC.N#C[N-]C#N.N#C[N-]C#N + CC[n+]1ccn(C)c1.N#C[N-]C#N + O=S(=O)([N-]S(=O)(=O)C(F)(F)F)C(F)(F)F.[Li+]
100 kPa, x1 = 0.2666, x2 = 0.6449
Details	electrical conductivity [S/m]
298 K	0.501
303 K	0.604
313 K	0.841
323 K	1.13
333 K	1.44
343 K	1.72

O=S(=O)([O-])C(F)(F)F.[Li+] + CC[n+]1ccn(C)c1.O=S(=O)([N-]S(=O)(=O)C(F)(F)F)C(F)(F)F
electrical conductivity [S/m], 101 kPa
Details	288.15 K	298.15 K	333.15 K
x1 = 0.01919	0.57	0.819	2
x2 = 0.9274	–	0.672	1.71
x2 = 0.9587	0.515	0.766	1.93

O=S(=O)([O-])C(F)(F)F.[Li+] + CC[n+]1ccn(C)c1.O=S(=O)([O-])C(F)(F)F
electrical conductivity [S/m], 101 kPa
Details	x1 = 0.007746	x1 = 0.01537	x2 = 0.9697	x2 = 0.9746
288.15 K	0.625	0.568	–	0.535
298.15 K	0.904	0.837	0.775	0.792
333.15 K	2.31	2.14	2.02	2.05

CC[n+]1ccn(C)c1.O=S(=O)([O-])C(F)(F)F + CN(C)C=O
100 kPa
Details	viscosity [mPa·s]
298.15 K, x2 = 0.1933	28.54
303.15 K, x2 = 0.406	12.55
308.15 K, x2 = 0.406	10.91
313.15 K, x2 = 0.5976	4.5
313.15 K, x2 = 0.7981	2.03
318.15 K, x2 = 0.0917	19.61
318.15 K, x2 = 0.1933	15.46
318.15 K, x2 = 0.2995	11.68
318.15 K, x2 = 0.6947	2.6
323.15 K, x2 = 0.6947	2.42
